Where two headings read alike, the source gives them in different places.
Legend:
[1] = test system: recombinant NL4-3 virus (nef section replaced with Renilla luciferase gene) in MT-2 cells; assay: HIV cell culture assay (antiviral activity, luciferase readout); format: cell-based; details: Renilla, NL43, MT-2 cells infected for 4-5 days with recombinant NL4-3 Renilla luciferase virus
How it was run: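 MT-2 cells were infected for 4-5 days with reporter virus made by transfecting the recombinant NL4-3 proviral clone into 293T cells, in the presence of serial compound dilutions. Luciferase activity was read with a live-cell substrate. EC50 came from the exponential median effect equation, (Fa)=1/[1+(ED50/drug conc.)m].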

[2] = Compound cytotoxicity, XTT-based colorimetric assay; format: cell-based; details: human
Description: Compound cytotoxicity and the corresponding CC50 values were determined using the same protocol as described in the antiviral assay except that uninfected cells were used. Cytotoxicity was assessed on day 4 in uninfected MT2 cells by using an XTT (2,3-bis[2-Methoxy-4-nitro-5-sulfophenyl]-2H-tetrazolium-5-carboxyanilide inner salt)-based colorimetric assay (Sigma-Aldrich, St Louis, Mo).

[3] = uninfected MT2 cells, day 4, XTT, read-out: CC50

Row | SMILES | EC50 [1] [nM] | CC50 at 4 days [2, 3] [nM] | CC50 at 4 days [2] [nM]
1 | Cc1cc(C2CCC(F)(F)CC2)nc2nc([C@H](Cc3cc(F)cc(F)c3)NC(=O)Cn3nc(C4CC4)c4c3C[C@@H]3C[C@H]43)n(-c3ccc(Cl)c4c(NS(C)(=O)=O)nn(CCN5C[C@H](C)OC(C)(C)C5)c34)c(=O)c12 (atropisomer, axis not shown; (P)) [Example 458, N-[(1S)-1-[(3P)-3-(4-chloro-3-methanesulfonamido-1-{2-[(6S)-2,2,6-trimethylmorpholin-4-yl]ethyl}-1H-indazol-7-yl)-7-(4,4-difluorocyclohexyl)-5-methyl-4-oxo-3H,4H-pyrido[2,3-d]pyrimidin-2-yl]-2-(3,5-difluorophenyl)ethyl]-2-[(2S,4S)-9-cyclopropyl-7,8-diazatricyclo[4.3.0.0^2,^4]nona-1(6),8-dien-7-yl]acetamide] | 0.007 | > 20 | 
2 | CS(=O)(=O)Nc1nn(CCN2[C@@H]3CC[C@H]2COC3)c2c(-n3c([C@H](Cc4cc(F)cc(F)c4)NC(=O)Cn4nc(C5CC5)c5c4C[C@@H]4C[C@H]54)nc4nc(C5CCC(F)(F)CC5)ccc4c3=O)ccc(Cl)c12 (atropisomer, axis not shown; (P)) [Example 381, N-[(1S)-1-[(3P)-3-(4-chloro-3-methanesulfonamido-1-{2-[(1R,5S)-3-oxa-8-azabicyclo[3.2.1]octan-8-yl]ethyl}-1H-indazol-7-yl)-7-(4,4-difluorocyclohexyl)-4-oxo-3H,4H-pyrido[2,3-d]pyrimidin-2-yl]-2-(3,5-difluorophenyl)ethyl]-2-[(2S,4S)-9-cyclopropyl-7,8-diazatricyclo[4.3.0.0^2,^4]nona-1(6),8-dien-7-yl]acetamide] | 0.007 |  | > 20
3 | COCCCn1nc(NS(C)(=O)=O)c2c(Cl)ccc(-n3c([C@H](Cc4cc(F)cc(F)c4)NC(=O)Cn4nc(C(F)F)c5c4C(F)(F)[C@@H]4C[C@H]54)nc4nc(C5CCC(F)(F)CC5)cc(CN5C[C@H]6C[C@@H](C5)O6)c4c3=O)c21 (atropisomer, axis not shown; (P)) [Example 531, N-[(1S)-1-[(3P)-3-[4-chloro-3-methanesulfonamido-1-(3-methoxypropyl)-1H-indazol-7-yl]-7-(4,4-difluorocyclohexyl)-5-{[(1R,5S)-6-oxa-3-azabicyclo[3.1.1]heptan-3-yl]methyl}-4-oxo-3H,4H-pyrido[2,3-d]pyrimidin-2-yl]-2-(3,5-difluorophenyl)ethyl]-2-[(2S,4R)-9-(difluoromethyl)-5,5-difluoro-7,8-diazatricyclo[4.3.0.0^2,^4]nona-1(6),8-dien-7-yl]acetamide] | 0.021 |  | > 20
4 | COCCNCCn1nc(NS(C)(=O)=O)c2c(Cl)ccc(-n3c([C@H](Cc4cc(F)cc(F)c4)NC(=O)Cn4nc(C5CC5)c5c4C[C@@H]4C[C@H]54)nc4nc(C5CCC(F)(F)CC5)cc(C)c4c3=O)c21 (atropisomer, axis not shown; (P)) [Example 10, N-[(1S)-1-[(3P)-3-(4-chloro-3-methanesulfonamido-1-{2-[(2-methoxyethyl)amino]ethyl}-1H-indazol-7-yl)-7-(4,4-difluorocyclohexyl)-5-methyl-4-oxo-3H,4H-pyrido[2,3-d]pyrimidin-2-yl]-2-(3,5-difluorophenyl)ethyl]-2-[(2S,4S)-9-cyclopropyl-7,8-diazatricyclo[4.3.0.0^2,^4]nona-1(6),8-dien-7-yl]acetamide] | 0.06 | > 50 | 
5 | CO[C@H]1CCN(CCn2nc(NS(C)(=O)=O)c3c(Cl)ccc(-n4c([C@H](Cc5cc(F)cc(F)c5)NC(=O)Cn5nc(C(F)F)c6c5C(F)(F)[C@@H]5C[C@H]65)nc5nc(C6CCC(F)(F)CC6)cc(C(F)F)c5c4=O)c32)C1 (atropisomer, axis not shown; (P)) [Example 257, N-[(1S)-1-[(3P)-3-(4-chloro-3-methanesulfonamido-1-{2-[(3S)-3-methoxypyrrolidin-1-yl]ethyl}-1H-indazol-7-yl)-7-(4,4-difluorocyclohexyl)-5-(difluoromethyl)-4-oxo-3H,4H-pyrido[2,3-d]pyrimidin-2-yl]-2-(3,5-difluorophenyl)ethyl]-2-[(2S,4R)-9-(difluoromethyl)-5,5-difluoro-7,8-diazatricyclo[4.3.0.0^2,^4]nona-1(6),8-dien-7-yl]acetamide] | 0.027 | > 50 | 
6 | Cc1cc(C2CCC(F)(F)CC2)nc2nc([C@H](Cc3cc(F)cc(F)c3)NC(=O)Cn3nc(C4CC4)c4c3C[C@@H]3C[C@H]43)n(-c3ccc(Cl)c4c(NS(C)(=O)=O)nn(CCN5CCCC(F)(F)CC5)c34)c(=O)c12 (atropisomer, axis not shown; (P)) [Example 3, N-[(1S)-1-[(3P)-3-{4-chloro-1-[2-(4,4-difluoroazepan-1-yl)ethyl]-3-methanesulfonamido-1H-indazol-7-yl}-7-(4,4-difluorocyclohexyl)-5-methyl-4-oxo-3H,4H-pyrido[2,3-d]pyrimidin-2-yl]-2-(3,5-difluorophenyl)ethyl]-2-[(2S,4S)-9-cyclopropyl-7,8-diazatricyclo[4.3.0.0^2,^4]nona-1(6),8-dien-7-yl]acetamide] | 0.009 | > 50 | 
7 | Cc1cc(C2(CF)CCC(F)(F)CC2)nc2nc([C@H](Cc3cc(F)cc(F)c3)NC(=O)Cn3nc(C(F)F)c4c3C(F)(F)[C@@H]3C[C@H]43)n(-c3ccc(Cl)c4c(NS(C)(=O)=O)nn(CCN5C[C@H](F)C[C@H](F)C5)c34)c(=O)c12 (atropisomer, axis not shown; (P)) [Example 556, N-[(1S)-1-[(3P)-3-(4-chloro-1-{2-[(3R,5S)-3,5-difluoropiperidin-1-yl]ethyl}-3-methanesulfonamido-1H-indazol-7-yl)-7-[4,4-difluoro-1-(fluoromethyl)cyclohexyl]-5-methyl-4-oxo-3H,4H-pyrido[2,3-d]pyrimidin-2-yl]-2-(3,5-difluorophenyl)ethyl]-2-[(2S,4R)-9-(difluoromethyl)-5,5-difluoro-7,8-diazatricyclo[4.3.0.0^2,^4]nona-1(6),8-dien-7-yl]acetamide] | 0.014 | > 20 | 
8 | Cc1cc(C2CCC(F)(F)CC2)nc2nc([C@H](Cc3cc(F)cc(F)c3)NC(=O)Cn3nc(C(F)F)c4c3C(F)(F)[C@@H]3C[C@H]43)n(-c3ccc(Cl)c4c(NS(C)(=O)=O)nn(CCN5CC(F)(F)C5)c34)c(=O)c12 (atropisomer, axis not shown; (P)) [Example 229, N-[(1S)-1-[(3P)-3-{4-chloro-1-[2-(3,3-difluoroazetidin-1-yl)ethyl]-3-methanesulfonamido-1H-indazol-7-yl}-7-(4,4-difluorocyclohexyl)-5-methyl-4-oxo-3H,4H-pyrido[2,3-d]pyrimidin-2-yl]-2-(3,5-difluorophenyl)ethyl]-2-[(2S,4R)-9-(difluoromethyl)-5,5-difluoro-7,8-diazatricyclo[4.3.0.0^2,4]nona-1(6),8-dien-7-yl]acetamide] | 0.013 | > 50 | 

From patent US12594276B2, “Inhibitors of human immunodeficiency virus replication” (ViiV Healthcare UK (No.5) Limited, priority 2024, dated 2026)
